Like-named read-outs stand apart in the source and are kept apart here.
System: 1b_Huh-Luc/Neo-ET cell line (bicistronic genotype 1b replicon in Huh 7 cells)
Test: HCV 1b replicon assay, luciferase readout
Assay type: cell-based, HCV genotype 1b
Conditions: Hepatitis C virus
Protocol: Biological activity of the compounds of the invention was determined using an HCV replicon assay. The 1b_Huh-Luc/Neo-ET cell line persistently expressing a bicistronic genotype 1b replicon in Huh 7 cells was obtained from ReBLikon GMBH. This cell line was used to test compound inhibition using luciferase enzyme activity readout as a measurement of compound inhibition of replicon levels.
On Day 1 (the day after plating), each compound is added in triplicate to the cells. Plates incubated for 72 […] prior to running the luciferase assay. Enzyme activity was measured using a Bright-Glo Kit (cat. number E2620) manufactured by Promega Corporation. The following equation was used to generate a percent control value for each compound.
%Control=(Average Compound Value/Average Control)*100
The EC50 value was determined using GraphPad Prism and the following equation:
Y=Bottom+(Top−Bottom)/(1+10̂((LogIC50−X)*HillSlope))
EC50 values of compounds are repeated several times in the replicon assay.

[1] = Huh-7, 1b_Huh-Luc/Neo-ET cell line, read-out: EC50, half-maximal inhibition of HCV 1b replication
[2] = Huh-7, class symbol, HCV genotype 1b replicon, read-out: Inhibition of HCV genotype 1b replicon

Row | Structure (SMILES) | EC50 [1] [nM] | EC50 [2] [nM]
1 | CNC(=O)c1c(-c2ccc(F)cc2)oc2cc3c(cc12)C(C)N(C(=O)c1ccc(F)cc1)CCN3S(C)(=O)=O (centres unmarked) [Compound B134] | 10 to 100 | 10 to 100
2 | CNC(=O)c1c(-c2ccc(Oc3ccc(F)cc3)cc2)oc2cc3c(cc12)C=CCCN3S(C)(=O)=O [Compound B135] |  | 100 to 1000
3 | CNC(=O)c1c(-c2ccc(Oc3ccc(F)cc3)cc2)oc2cc3c(cc12)CCCCN3S(C)(=O)=O [Compound B136] | 10 to 100 | 10 to 100
4 | CNC(=O)c1c(-c2ccc(F)cc2)oc2cc3c(cc12)C(C)n1nncc1CN3S(C)(=O)=O (centres unmarked) [Compound B138] | ≤ 10 | < 10
5 | CNC(=O)c1c(-c2ccc(F)cc2)oc2cc3c(cc12)C(C)N(CC(F)F)CCN3S(C)(=O)=O (centres unmarked) [Compound B139] | ≤ 10 | < 10
6 | CNC(=O)c1c(-c2ccc(F)cc2)oc2cc3c(cc12)C(C)N(Cc1ccc(F)cc1)CCN3S(C)(=O)=O (centres unmarked) [Compound B142] | 10 to 100 | 10 to 100
7 | CCN1CCN(S(C)(=O)=O)c2cc3oc(-c4ccc(F)cc4)c(C(=O)NC)c3cc2C1C (centres unmarked) [Compound B144] | 10 to 100 | 10 to 100
8 | CNC(=O)c1c(-c2ccc(F)cc2)oc2cc3c(cc12)C(C)N(CCF)CCN3S(C)(=O)=O (centres unmarked) [Compound B147] | 10 to 100 | 10 to 100
9 | CNC(=O)c1c(-c2ccc(F)cc2)oc2cc3c(cc12)C(C(F)(F)F)OCCN3S(C)(=O)=O (centres unmarked) [Compound B148] | ≤ 10 | < 10
10 | CNC(=O)c1c(-c2ccc(F)cc2)oc2cc3c(cc12)C(C)N(CC(=O)O)CCN3S(C)(=O)=O (centres unmarked) [Compound B149] |  | > 1000
11 | CNC(=O)c1c(-c2ccc(F)cc2)oc2cc3c(cc12)C(C)N(S(C)(=O)=O)CCN3S(C)(=O)=O (centres unmarked) [Compound B157] | 10 to 100 | 10 to 100
12 | CNC(=O)c1c(-c2ccc(Oc3ccc(F)cc3)cc2)oc2cc3c(cc12)C(C)n1nncc1CN3S(C)(=O)=O (centres unmarked) [Compound B158] | ≤ 10 | < 10
13 | CNC(=O)c1c(-c2ccc(F)cc2)oc2cc3c(cc12)C(C)N([C@H](C)c1ccc(F)cc1)CCN3S(C)(=O)=O (some centres unmarked) [Compound B159] | 10 to 100 | 10 to 100
14 | [2H]C([2H])([2H])NC(=O)c1c(-c2ccc(Oc3ccc(F)cc3)cc2)oc2cc3c(cc12)C(C)N(C)CCN3S(C)(=O)=O (centres unmarked) [Compound B160] | 10 to 100 | 10 to 100
15 | CNC(=O)c1c(-c2ccc(F)cc2)oc2cc3c(cc12)C(C)N(c1ccc(F)cc1)CCN3S(C)(=O)=O (centres unmarked) [Compound B165] | 10 to 100 | 10 to 100
16 | CC1c2cc3c(-c4ncc[nH]4)c(-c4ccc(Oc5ccc(F)cc5)cc4)oc3cc2N(S(C)(=O)=O)CCN1C (centres unmarked) [Compound B166] | 10 to 100 | 10 to 100
17 | CNC(=O)c1c(-c2ccc(Oc3ccc(F)cc3)cc2)oc2cc3c(cc12)C(C)OC(C)(C)CN3S(C)(=O)=O (centres unmarked) [Compound B167] | 10 to 100 | 10 to 100
18 | CNC(=O)c1c(-c2ccc(Oc3ccc(F)cc3)cc2)oc2cc3c(cc12)C(C)OC(C)CN3S(C)(=O)=O (centres unmarked) [Compound B168] | ≤ 10 | < 10
19 | CNC(=O)c1c(-c2ccc(F)cc2)oc2cc3c(cc12)C(C)N(C)C(=O)CN3S(C)(=O)=O (centres unmarked) [Compound B172] | 10 to 100 | 10 to 100
20 | CNC(=O)c1c(-c2ccc(F)cc2)oc2cc3c(cc12)C(C)NC(=O)CN3S(C)(=O)=O (centres unmarked) [Compound B173] | 10 to 100 | 10 to 100
21 | CNC(=O)c1c(-c2ccc(Oc3ccc(F)cc3)cc2)oc2cc3c(cc12)C(C)N(C)C(=O)CN3S(C)(=O)=O (centres unmarked) [Compound B174] | 10 to 100 | 10 to 100
22 | CNC(=O)c1c(-c2ccc(Oc3ccc(F)cc3)cc2)oc2cc3c(cc12)C(C)NC(=O)CN3S(C)(=O)=O (centres unmarked) [Compound B175] | 10 to 100 | 10 to 100
23 | CNC(=O)c1c(-c2ccc(Oc3ccc(F)cc3)cc2)oc2cc3c(cc12)C(C)OC1(CC1)CN3S(C)(=O)=O (centres unmarked) [Compound B178] | 10 to 100 | 10 to 100
24 | CNC(=O)c1c(-c2ccc(F)cc2)oc2cc3c(cc12)C(C)OC(C)(C)CN3S(C)(=O)=O (centres unmarked) [Compound B183] | 10 to 100 | 10 to 100
25 | CNC(=O)c1c(-c2ccc(F)cc2)oc2cc3c(cc12)C(C)OC1(CC1)CN3S(C)(=O)=O (centres unmarked) [Compound B188] | 10 to 100 | 10 to 100
26 | CNC(=O)c1c(-c2ccc(F)cc2)oc2cc3c(cc12)C(C)n1nnnc1CN3S(C)(=O)=O (centres unmarked) [Compound B189] | 10 to 100 | 10 to 100

Reference: patent US20130302282A1, “Inhibitors of Hepatitis C Virus” (priority 2010, published 2013)
